Reference: patent US11638719B2, “Product for obesity treatment” (YEDITEPE UNIVERSITESI, priority 2017, dated 2023)

Assays:
Type in all cases: cell-based
[1] = system: human adipose stem cells (hASCs); assay: Cytotoxicity analysis, cell viability by MTS assay; conditions: NaB 20 μg/ml; for cell viability: MTS
Method: Cytotoxicity of Pluronic® F68 and NaB were dissolved and tested at 7 different concentrations in DMEM ([…], 0.7%, 0.5%, 0.3%, 0.1%, 0.05%, 0.01% (w/v) for F68 and 5, 10, 20, 50, 100, 200 and 300 ug/ml for NaB).
HASCs were seeded into 96-well culture plates (Corning Plasticware, Corning, N.Y., cat. no. CLS3360) at 5,000 cells/well. The next day, the cells were treated with F68 and NaB solutions that were prepared at different concentrations. In accordance with the manufacturer's instructions, cell viability was measured by the MTS assay (Promega, Southampton, UK CellTiter 96 AqueousOne solution). After 24, 48 and 72 hours of incubation, 10 ul of MTS reagent and 100 ul of DMEM medium were applied to the cells and then, after incubation at 37° C. for 2 hours, their absorbances at […] were measured with the ELISA plate reader (BioTek Instruments, Inc., Vt., USA).

[2] = system: PPARγ, FABP4 and adiponectin gene expression in human adipose stem cells; assay: RT-PCR analysis of adipogenesis-promoting gene expression after adipocyte differentiation; conditions: F68 0.05%, NaB 20 μg/ml, alone or combined; 10 days adipogenic differentiation; compared to positive control; normalized to GAPDH
Method: (§1) The cells were seeded into 6-well culture plates at 100,000 cells/well in an adipogenic differentiation medium. Content of the medium was as follows. 10% (v/v) FBS, 1 uM dexamethasone, 100 uM indomethacin (Sigma, USA), 500 uM IBMX (Calbiochem Merck Millipore, Germany) and 0.01 mg/mL insulin (Gibco, UK). 5 different groups were prepared; only F68, only NaB, F68 and NaB combination, PC and NC. Adipogenic differentiation was applied for 10 days by changing the medium every other day. While only DMEM, 10% (v/v) FBS and 1% (v/v) PSA were applied to the negative control group, the positive control group was cultured with adipogenic differentiation medium.
Following differentiation, RNA isolation was carried out using High Pure RNA Isolation Kit (Roche, Germany) in accordance with the manufacturer's instructions. After performance of cDNA synthesis (High Fidelity cDNA synthesis kit, Roche, Germany) from isolated RNA samples, RT-PCR was performed in three replicates using iCycler RT-PCR detection system (Bio-Rad, Hercules, Calif.). Synthesis levels were normalized to GAPDH.
For each sample the fold changes in the expression levels were determined using the method 2 (-Delta Delta C (t)).

[3] = system: PPARγ, FABP4 and adiponectin protein expression in human adipose stem cells; assay: Immunocytochemical analysis of PPARγ, FABP4 and adiponectin proteins after adipocyte differentiation; conditions: F68 0.05%, NaB 20 μg/ml, alone or combined at the same ratios; compared to positive control
Method: as §1
Human adipose stem cells were seeded into 48-well plates at 8,000 cells/well. Following the differentiation experiment, the cells were fixed in 2% (w/v) paraformaldehyde at 4° C. for 30 minutes and then blocked with 2% (v/v) goat serum (Sigma, USA) for 20 minutes. The cells incubated at 4° C. overnight with PPAR-γ (ab8934, Abcam, UK, 1: 100), FABP4 (SC-30088, Santa Cruz Biotechnology, Tex., USA, 1:100) and adiponectin (ab22554, Abcam, UK, 1:50) primary antibodies were then incubated with secondary antibodies (goat anti-rabbit IgG Alexa Fluor 488, goat anti-mouse IgGAlexaFluor 488, 1:1000) at 4° C. for 2 hours. […] Immunocytochemical analysis results were observed under fluorescence microscope (NiconEclipse TE200). […]

[4] = system: human adipose stem cells (hASCs); assay: 'Oil Red O' staining of fat accumulation after adipocyte differentiation; conditions: F68 0.05%, NaB 20 μg/ml, alone or combined; 10 days adipogenic differentiation; compared to positive control
Method: as §1
The ‘Oil Red O’ solution was prepared by dissolving 0.5 grams of ‘Oil Red O’ (Sigma, USA) in 100 ml of isopropanol. After being fixed with 2% paraformaldehyde (weight/volume) for 30 minutes, the cells were incubated in ‘Oil Red O’ solution (diluted in PBS at 6:4) for 1 hour. The cells were observed under light microscope.
Statistical analysis of the results was performed with the unpaired t-test and the graphs were drawn using GraphPad Prism 5 software Statistical significance was accepted as p<0.05. In addition, a graphical representation of the results obtained from immunocytochemistry and ‘Oil red O’ staining was obtained using the Adobe Creative Suite 6 program

sodium pentaborate pentahydrate [NaB]
cell viability ([1]; end of day 1, hASCs): 101% | cell viability ([1]; end of day 2, hASCs): 106% | cell viability ([1]; end of day 3, hASCs): 109% | cytotoxicity of the dosage used ([1]; hASCs): non-cytotoxic | expression levels of PPARγ, FABP4 and adiponectin genes [2]: increased significantly | PPARγ, FABP4 and adiponectin protein expression levels [3]: higher than that of positive control | amount of fat accumulation in the cells [4]: increased the amount of fat accumulation
